From patent EP4722365A1, “DOUBLE-STRANDED NUCLEOTIDE COMPOUND FOR METABOLIC DISEASES AND USE THEREOF” (Visirna Therapeutics (Suzhou) Co., Ltd., priority 2023, dated 2024)

Test system: human DGAT2
Assay: Non-alcoholic steatohepatitis induced by a western diet in human DGAT2 carrying mice (Example 9, liver histology scores)
Assay type: in vivo, mouse
Details: for Ballooning degeneration / Fibrosis score / Grade of steatosis / Lobular inflammation / NAFLD score: B6-hDGAT2 mice, western diet
Description: Humanized mice with B6-hDGAT2-TG target and non-alcoholic steatohepatitis model were provided by GemPharmatech LLC. On D0, subcutaneous administration and induction and feeding with western diet were started. On D29, the second injection was performed. Effective period: 8 weeks. 4 mice in one group were sacrificed at 4-week endpoint, and 4 mice in the other group were sacrificed at 8-week endpoint.
Plasma was collected every week to detect the levels of TG, Chol, HDL-C, LDL-C, ALT, and AST, and the liver was stained with HE and NASH score were obtained at the endpoint.

[1] = 3mpk, D0 and D29, 8-week endpoint
[2] = 3mpk, 4-week endpoint, mean ± SEM
[3] = 6mpk, D0 and D29, 8-week endpoint
[4] = 6mpk, 4-week endpoint, mean ± SEM

Substance: dS319: sense (invAb)*acaccauaGfAfCfuauuugcuua[L96]; anti-sense Vpu*Af*a*GfcAfaauagUfcUfaUfgGfuGf* u
- Ballooning degeneration [1]: 2.0±0.0
- Fibrosis score [1]: 0.9±0.1
- Grade of steatosis [1]: 1.0±0.0
- Lobular inflammation [1]: 1.8±0.2
- NAFLD score [1]: 4.8±0.2
- Ballooning degeneration [2]: 2.0±0.0
- Fibrosis score [2]: 0.5±0.1
- Grade of steatosis [2]: 0.7±0.1
- Lobular inflammation [2]: 2.2±0.1
- NAFLD score [2]: 4.9±0.2
- Ballooning degeneration [3]: 1.3±0.1
- Fibrosis score [3]: 0.8±0.2
- Grade of steatosis [3]: 1.1±0.1
- Lobular inflammation [3]: 2.0±0.1
- NAFLD score [3]: 4.3±0.0
- Ballooning degeneration [4]: 1.3±0.1
- Fibrosis score [4]: 0.4±0.1
- Grade of steatosis [4]: 0.5±0.2
- Lobular inflammation [4]: 1.6±0.2
- NAFLD score [4]: 3.4±0.2
- improvement on non-alcoholic steatohepatitis (NASH) by NAFLD activity score (FIG. 1 legend, hDGAT2 combined with western diet, over 4 weeks): improvement
- improvement on fibrosis in non-alcoholic steatohepatitis (FIG. 2 legend, hDGAT2 combined with western diet, over 4 weeks): improvement
